Source: US10894808B2, “Polypeptide ligands specific for plasma kallikrein” (BicycleRD Limited, priority 2013, dated 2021)
Where two headings read alike, the source gives them in different places. Blank lines part the entries; values can stand above or below the compound they belong to. *1 amine or outer side, *2 acyl side, *3 side chain or, on linkers, in order; H or OH if unused. Where a SMILES comes first, the peptide text is derived from it. Bridges are numbered along the chain shown (N, C = ends). [ ]: non-standard residue; d: D form. TBMB = c1c(C[*:1])cc(C[*:3])cc1C[*:2]; Sar = CNCC(=O)O

Experiments:
human plasma kallikrein = target: T1, human plasma kallikrein (Homo sapiens, UniProt P03952); assay: Functional enzyme assay, inhibition of human plasma kallikrein (Z-PheArg-AMC substrate); format: biochemical; settings: Table 1, synthetic peptides; read-out: Human (Ki)
T1 construct: purchased Stratech, UK
T1 sequence (P03952 391-638 limits assumed): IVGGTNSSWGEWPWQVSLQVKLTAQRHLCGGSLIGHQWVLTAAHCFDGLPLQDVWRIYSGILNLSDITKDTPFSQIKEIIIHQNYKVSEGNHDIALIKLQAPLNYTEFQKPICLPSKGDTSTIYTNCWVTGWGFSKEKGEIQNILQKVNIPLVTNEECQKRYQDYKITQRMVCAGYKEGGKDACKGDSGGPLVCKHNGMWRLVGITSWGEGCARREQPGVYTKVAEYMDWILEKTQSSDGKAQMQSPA
T1 sequence (P03952 20-390 partner limits assumed): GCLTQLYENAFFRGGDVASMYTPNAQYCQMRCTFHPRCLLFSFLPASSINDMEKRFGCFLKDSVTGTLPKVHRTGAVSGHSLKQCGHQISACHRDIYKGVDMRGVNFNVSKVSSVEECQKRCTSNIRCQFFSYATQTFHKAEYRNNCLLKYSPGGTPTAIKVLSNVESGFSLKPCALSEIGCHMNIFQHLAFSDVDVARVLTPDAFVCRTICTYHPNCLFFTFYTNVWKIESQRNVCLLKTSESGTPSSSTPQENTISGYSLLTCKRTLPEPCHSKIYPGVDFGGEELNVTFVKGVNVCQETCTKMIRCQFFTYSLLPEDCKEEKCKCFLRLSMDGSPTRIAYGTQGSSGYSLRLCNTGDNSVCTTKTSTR
Procedure: (§1) Functional enzyme assays were conducted in 10 mM Tris HCl, 150 mM NaCl, 10 mM MgCl2, 1 mM CaCl2 and 1 mg/mL BSA (all Sigma UK) pH 7.4 at 25° C. in solid black 96 or 384 well plates. […] Release of AMC was measured using a Pherastar FS (BMG Labtech), excitation 360 nm, emission 460 nm. The rate of the linear phase of the reaction, typically 5 to 45 minutes, was calculated in MARS data analysis software (BMG labtech). The rate was then used to calculate the IC50 and Ki in Prism (GraphPad). A four parameter inhibition non-linear regression equation was used to calculate the IC50. […]
(§2) Peptides were dissolved as the TFA-salts in their powder form, and stock solutions were usually prepared in water. All solutions were centrifuged and filtered ([…] syringe filters) prior to absorption measurement at 280 nm. Extinction coefficients were calculated based on the Trp/Tyr content of the peptide, and that of TMB (the TMB core, when contained in a peptide, has an extinction coefficient of ˜300 M^−1 cm^−1).

rat plasma kallikrein = target: T2, rat plasma kallikrein (Rattus norvegicus, UniProt P14272); assay: Functional enzyme assay, inhibition of rat plasma kallikrein (Z-PheArg-AMC substrate); format: biochemical; settings: Table 1, synthetic peptides; read-out: Rat (Ki)
T2 construct: polyhistidine tag followed by proTEV cleavage site (pro-peptide) (N, cleaved yes); made in house; host or cells: HEK-293 (suspension-adapted), pEXPR-IBA42 vector
T2 sequence (P14272 391-638 limits assumed): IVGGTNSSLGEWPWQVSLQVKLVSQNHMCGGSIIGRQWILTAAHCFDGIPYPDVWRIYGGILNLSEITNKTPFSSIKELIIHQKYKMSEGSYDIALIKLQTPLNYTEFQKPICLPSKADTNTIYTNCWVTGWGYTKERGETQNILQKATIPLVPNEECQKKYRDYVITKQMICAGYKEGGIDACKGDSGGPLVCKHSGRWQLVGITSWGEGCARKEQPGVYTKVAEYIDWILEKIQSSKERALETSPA
Procedure: as §1, §2

rabbit kallikrein = rabbit kallikrein (Oryctolagus cuniculus, UniProt G1T127); assay: Functional enzyme assay, inhibition of rabbit kallikrein; format: biochemical
Chain of rabbit kallikrein (G1T127 20-629): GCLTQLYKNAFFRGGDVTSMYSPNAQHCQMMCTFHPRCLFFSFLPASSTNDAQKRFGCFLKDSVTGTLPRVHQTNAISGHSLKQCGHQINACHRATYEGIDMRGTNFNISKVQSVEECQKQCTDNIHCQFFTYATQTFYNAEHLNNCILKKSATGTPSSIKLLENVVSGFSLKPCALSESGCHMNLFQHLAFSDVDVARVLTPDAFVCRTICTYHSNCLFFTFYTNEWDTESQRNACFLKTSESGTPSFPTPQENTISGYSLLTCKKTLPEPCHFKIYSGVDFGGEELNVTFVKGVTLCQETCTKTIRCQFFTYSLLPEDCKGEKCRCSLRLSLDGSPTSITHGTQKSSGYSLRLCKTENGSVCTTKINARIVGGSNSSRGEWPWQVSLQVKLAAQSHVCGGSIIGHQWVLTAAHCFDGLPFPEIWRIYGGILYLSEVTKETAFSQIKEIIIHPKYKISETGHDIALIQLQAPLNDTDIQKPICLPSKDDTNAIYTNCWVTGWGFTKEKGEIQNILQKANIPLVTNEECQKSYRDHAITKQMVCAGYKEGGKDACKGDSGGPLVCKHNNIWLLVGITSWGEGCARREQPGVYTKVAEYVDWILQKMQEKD
Procedure: as §1, §2

[1] = Plasma stability profiling Method #1 (35% plasma, MALDI-TOF window of detection); format: in vitro ADME; settings: Method #1, 35% rat or human plasma, 37° C., qualitative
Procedure: A rapid plasma stability profiling assay was developed that employed mass spectrometric detection (MALDI-TOF, Voyager DE, Applied Biosystems) of the parent mass, until the time when the parent peptide mass was no longer observable. Specifically, 200 μM of peptide was incubated in the presence of 35% rat or human plasma (Sera labs, using citrate as anticoagulant) at 37° C., which was supplemented with 1×PBS (derived from a 10×PBS Stock, Sigma). At various time points (i.e. t=0, 3, 24 hrs, henceafter daily up to 10 days), 2 μL of sample was added to 18 μL of 30 mM ammonium bicarbonate in a 1:1 mixture of acetonitrile:H2O. Samples were frozen at −80° C. until the time of analysis. For mass spectrometric analysis that determines the approximate detection window of the peptide, the acetonitrile:H2O-diluted sample of a given time point was spotted directly (0.7 μL) onto the MALDI plate. Matrix (alpha-cyanocinnamic acid, Sigma, prepared as a saturated solution in 1:1 acetonitrile:water containing 0.1% trifluoroacetic acid) was layered over the sample (1 μL). At a similar laser intensity setting on the MALDI TOF, the time could then be determined until parent peptide was no longer detectable. It should be noted that this is a qualitative assay serves to detect relative changes in plasma stability.

[2] = Aqueous solubility (qualitative); format: physicochemical; settings: in words
[3] = target: T3, biotinylated human plasma kallikrein (Homo sapiens, UniProt P03952); assay: Homogeneous plate-based screening assay of TBMB-cyclised phage clones (signal:background); format: binding; settings: Table 4, 06-259 affinity-matured library
T3 construct: The human kallikrein is non-recombinant and therefore the heavy chain is present; purchased Innovative Research, Novi, Mich., USA IHPKA; host or cells: from human plasma
T3 sequence (P03952 391-638 limits assumed): as the sequence (P03952 391-638 limits assumed) above
T3 sequence (P03952 20-390 partner limits assumed): as the sequence (P03952 20-390 partner limits assumed) above
Procedure: Assay of binding of individual clones: Library transformant colonies were picked at random and grown as individual cultures in 2TY broth containing selective antibiotic. The picked colonies were DNA-sequenced using a QIAgen PyroMark Q96 DNA sequencer to reveal the amino-acid substitution present in each clone. Where isolated, a clone of each unique substitution was assayed for human plasma kallikrein binding as follows. The phage-containing supernatant was harvested from the culture and phage were cyclised with tris bromomethyl benzene (TBMB) based on the methods of Heinis et al (Nature Chemical Biology vol. 5 pp 502-507 (2009)). The purified phage from this process were assayed for binding to biotinylated human plasma kallikrein using a homogeneous plate-based binding assay; assay read-out measured on a BMG Labtech Pherastar FS plate reader. The quantitative binding data from triplicate assay samples was averaged (mean) and expressed as signal:background (where background was a sample assayed with no target material). The signal:background was expressed as a % of the parallel parent sample. Error bars denote standard deviation of the mean. Assays shown are representative of at least 2 independent experiments. The assay data was correlated with the peptide sequences. Substitutions marked in grey were not tested (a clone was not isolated from the random library sampling). A sample of a non-binding (arbitrary) bicycle was assayed in parallel to illustrate the assay baseline.
Assay of binding of individual clones: Library transformant colonies, or selection output colonies, were picked and grown as individual cultures in 2TY broth containing selective antibiotic. The picked colonies were DNA-sequenced using a QIAgen PyroMark Q96 DNA sequencer to reveal the amino-acid substitution present in each clone, and were assayed for human plasma kallikrein binding as follows. The phage-containing supernatant was harvested from the culture and phage were cyclised with tris-bromomethylbenzene (TBMB) based on the methods of Heinis et al (Nature Chemical Biology vol. 5 pp 502-507 (2009)). The purified phage from this process were assayed for binding to biotinylated human plasma kallikrein using a homogeneous plate-based binding assay; assay read-out measured on a BMG Labtech Pherastar FS plate reader. The quantitative binding data from duplicate assay samples was averaged (mean) and expressed as signal:background. Assay data shown is representative of at least 2 independent experiments. The assay data was correlated with the peptide sequences.

[4] = Plasma stability profiling Method #2 (95% plasma, MALDI-TOF), rat plasma; format: in vitro ADME; settings: qualitative, sampled up to 46 hrs
Procedure: (§3) To obtain stability data more rapidly, peptides were also assessed in 95% plasma. Here, PBS was omitted, and a 1-5 mM peptide stock (in DMSO) was directly diluted into plasma (i.e. 2.5 μL stock into 47.5 μL plasma), giving a final concentration of 50 μM. 5 μL samples were taken at appropriate time points and frozen at −80° C. For analysis, the samples were defrosted, mixed with 25 μL of 3:3:1 acetonitrile:methanol:water, and centrifuged at 13 k for 5 min. 5 μL of the peptide-containing supernatant was aspirated and mixed with 30 mM ammonium bicarbonate in a 1:1 mixture of acetonitrile:H2O. 1 μL of this was then spotted on the MALDI plate and analysed as described above. As above, it should be noted that this is a qualitative assay serves to detect relative changes in plasma stability.

[5] = Plasma stability profiling Method #2 (95% plasma, MALDI-TOF), human plasma; format: in vitro ADME; settings: qualitative, sampled up to 46 hrs
Procedure: as §3

[6] = Intravenous pharmacokinetics in rat; format: in vivo
Procedure: Peptides used for the pharmacokinetic studies in Example 4 were lyophilised from 10 mM HCl in water 3 times to afford the hydrochloride salts of the compounds. Solutions were dosed by intravenous bolus at 1 mg/mL in 50 mM Hepes pH 7.0, 5% glycerol, 1.9% DMSO for two compounds (Ac-(06-550) Aze3 HArg5 Sar3-(D-Arg2)) and (06-259-02)-Sar3-(D-Arg2)) at 5 mg/kg in Spraguely Dawely rats. Serial blood samples (˜0.2 mL) were taken into EDTA tubes at the indicated time points, and plasma was separated by centrifugation, and frozen at −20 C for analysis. Employing standard bioanalytical techniques, plasma samples were then analysed and quantified for parent remaining compound using a Waters, Xevo TQS LC-MS. PK parameters were determined using the software package PK Solutions 2.0 from Summit Research Services.
Peptides Ac-(06-550)-Sar3-(D-Arg)2Aze3 HArg5 (which contains the stabilising and affinity enhancing modifications Aze3 and HArg5, and a solubilising C-terminal extension Sar3-(D-Arg)2) (SEQ ID NO: 98) and Ac-(06-259-02)-Sar3-(D-Arg)2 were selected for pharmacokinetic assessment in rat. Peptides were injected intravenously in buffered solution at 1 mg/mL at 5 mg/kg Sprague Dawley rats, and blood was sampled and analysed for peptide concentrations at a number of time points post injection.

[7] = tested on: carrageenan-induced paw oedema; assay: Carrageenan-induced paw oedema in rat; format: in vivo; settings: peptides 15 mg/kg ip, indomethacin 5 mg/kg ip, paw volume at 1, 2, 4, 6 h, p<0.001
Procedure: In this analysis, peptide Ac-(06-259-02)-Sar3-(D-Arg)2 (referred to in this study as Bicycle 3; see Example 2 herein) was assessed comparatively against the peptide Ac-(06-34-18) Phe2 Aze3 Tyr4 HArg5 Ala(ψCH2NH)6 (referred to in this study as Bicycle 2 and which is disclosed in Table 26b and FIG. 22 of PCT/EP2014/057440). Inflammation was induced in male Sprague-Dawley rats (n=10 per group) by injection of 100 μL of 1% carrageenan solution in the subplantar region of the right hind paw. Animals received treatment with the peptides and indomethacin according to Table 10:
At 1, 2, 4 and 6 hours after carrageenan administration, paw volume was measured by water displacement method. Statistical analysis was conducted using 2-way ANOVA with repeated measures (GraphPad Prism).

Compound: CC(C)C[C@@H]1NC(=O)[C@@H]2CCCN2C(=O)[C@H](C)NC(=O)[C@H](CC(=O)O)NC(=O)[C@H](Cc2c[nH]c3ccccc23)NC(=O)[C@@H]2CCCN2C(=O)[C@@H]2CSCc3cc(cc(c3)CSC[C@@H](C(=O)N[C@@H](C)C(N)=O)NC1=O)CSC[C@H](NC(=O)[C@H](C)N)C(=O)N[C@@H](CC(N)=O)C(=O)N[C@@H]([C@@H](C)O)C(=O)N[C@@H](Cc1c[nH]c3ccccc13)C(=O)N[C@@H](CC(N)=O)C(=O)N1CCC[C@H]1C(=O)N[C@@H](Cc1c[nH]c3ccccc13)C(=O)N2 [06-259-02] (H-ACNTWNPWCPWDAPLCA-NH2; linker 2-9-16 via TBMB; N-terminus and C-terminus assumed)
Ki (rabbit kallikrein; Table 5, read-out: Rabbit (Ki)): 1450 nM | S:B (Signal:Background) [3]: 43.49 | window of detection of parent peptide [1]: up to 10 days | comparative stability in rat plasma [4]: significantly more stable | comparative stability in human plasma [5]: significantly more stable | clearance ([6]; Sprague-Dawley, plasma, text b258, rat, iv 5 mg/kg): 7 mL/min/kg | aqueous solubility [2]: poor solubility profile

Compound: CC(=O)N[C@H]1CSCc2cc3cc(c2)CSC[C@H](NC(=O)[C@H](Cc2c[nH]c4ccccc24)NC(=O)[C@@H]2CCCN2C(=O)[C@H](CC(N)=O)NC(=O)[C@H](Cc2c[nH]c4ccccc24)NC(=O)[C@H]([C@@H](C)O)NC(=O)[C@H](CC(N)=O)NC1=O)C(=O)N1CCC[C@H]1C(=O)N[C@@H](Cc1c[nH]c2ccccc12)C(=O)N[C@@H](CC(=O)O)C(=O)N[C@@H](C)C(=O)N1CCC[C@H]1C(=O)N[C@@H](CC(C)C)C(=O)N[C@H](C(=O)N[C@@H](C)C(=O)N(C)CC(=O)N(C)CC(=O)N(C)CC(=O)N[C@H](CCCNC(=N)N)C(=O)N[C@H](CCCNC(=N)N)C(N)=O)CSC3 [Ac-(06-259-02)-Sar3-(DArg2)] (Ac-CNTWNPWCPWDAPLCA[Sar][Sar][Sar][dR][dR]-NH2; linker 1-8-15 via TBMB)
Ki (rabbit kallikrein): 1450 nM | stability in the rat circulation ([6]; FIG. 4, rat, iv, in words): marked stability in the rat circulation | clearance ([6]; in vivo, Table 8, Sprague Dawley rat, iv 5 mg/kg): 7.2 mL/min/kg | Vd ([6]; in vivo, Table 8, Sprague Dawley rat, iv 5 mg/kg, read-out: Vss): 0.8 L/kg | half-life ([6]; in vivo, Table 8, Sprague Dawley rat, iv 5 mg/kg, read-out: t1/2 elimination): 1.3 h | effect on paw swelling induced by carrageenan [7]: inhibited the paw swelling induced by carrageenan at all timepoints

Compound: COc1ccc2c(c1)c(CC(=O)O)c(C)n2C(=O)c1ccc(Cl)cc1 [indomethacin, reference compound]
effect on paw swelling induced by carrageenan [7]: highly significant reduction in paw swelling

Other lines, results leading:

Ki (human plasma kallikrein): 3.4 nM | Ki (rat plasma kallikrein): 18.9 nM | Ki (rabbit kallikrein; Table 1, synthetic peptides, read-out: Rabbit (Ki)): 342 nM | Ki (rabbit kallikrein; Table 5, read-out: Rabbit (Ki)): 342 nM | window of detection of parent peptide [1]: up to 10 days | aqueous solubility [2]: poor solubility profile
Compound: CC[C@H](C)[C@@H]1NC(=O)[C@H](CC(C)C)NC(=O)[C@H]([C@@H](C)O)NC(=O)[C@@H]2CSCc3cc(cc(c3)CSC[C@@H](C(=O)N[C@@H](C)C(N)=O)NC(=O)[C@H]([C@@H](C)O)NC(=O)[C@H]([C@@H](C)CC)NC(=O)[C@H](CC(N)=O)NC1=O)CSC[C@H](NC(=O)[C@H](C)N)C(=O)N[C@@H](CCCNC(=N)N)C(=O)N[C@@H](CC(N)=O)C(=O)N[C@@H](Cc1ccc(O)cc1)C(=O)N[C@@H](Cc1c[nH]c3ccccc13)C(=O)N[C@@H](CC(N)=O)C(=O)N1CCC[C@H]1C(=O)N2 [06-255] (H-ACRNYWNPCTLINITCA-NH2; linker 2-9-16 via TBMB; N-terminus and C-terminus assumed)

clearance ([6]; in vivo, text b258, rat, iv 5 mg/kg): 17 mL/min/kg | aqueous solubility [2]: significantly reduced aqueous solubility
Compound: CC[C@H](C)[C@@H]1NC(=O)[C@H](CC(=O)O)NC(=O)[C@@H]2CCCN2C(=O)[C@H](Cc2ccc(O)cc2)NC(=O)[C@H](Cc2ccc(O)cc2)NC(=O)[C@H](C(C)C)NC(=O)[C@@H]2CSCc3cc(cc(c3)CSC[C@H](N)C(=O)N[C@@H](CO)C(=O)N[C@@H](Cc3ccccc3)C(=O)N3CCC[C@H]3C(=O)N[C@@H](Cc3ccc(O)cc3)C(=O)N[C@@H](CCCNC(=N)N)C(=O)N2)CSC[C@@H](C(N)=O)NC1=O [06-550] (H-CSFPYRCVYYPDIC-NH2; linker 1-7-14 via TBMB; N-terminus assumed)
